pIC50: −log10 of the molar value.
What was measured:
[1] = test system: IGROV-1; assay: Cytotoxicity against human IGROV1 cells assessed as cell growth at 10 uM after 48 hrs by sulforhodamine B assay relative to control; format: functional; details: IGROV-1, 48 h, read-out: Activity
[2] = test system: NCI-H460; assay: Cytotoxicity against human NCI-H460 cells assessed as cell growth at 10 uM after 48 hrs by sulforhodamine B assay relative to control; format: functional; details: NCI-H460, 48 h, read-out: Activity
[3] = test system: OVCAR-8; assay: Cytotoxicity against human OVCAR8 cells assessed as growth inhibition after 48 hrs by sulforhodamine B assay; format: functional; details: OVCAR-8, 48 h
[4] = test system: MOLT-4; assay: Cytotoxicity against human MOLT4 cells assessed as cell growth at 1 uM after 48 hrs by sulforhodamine B assay relative to control; format: functional; details: MOLT-4, 48 h, read-out: Activity
[5] = test system: MCF7; assay: Cytotoxicity against human MCF7 cells assessed as growth inhibition after 48 hrs by MTT assay; format: functional, cell-based; details: MCF7, 48 h
[6] = test system: SNB-19; assay: Cytotoxicity against human SNB19 cells assessed as cell growth at 100 uM after 48 hrs by sulforhodamine B assay relative to control; format: functional; details: SNB-19, 48 h, read-out: Activity
[7] = test system: RPMI-8226; assay: Cytotoxicity against human RPMI8226 cells assessed as cell growth at 1 uM after 48 hrs by sulforhodamine B assay relative to control; format: functional; details: RPMI-8226, 48 h, read-out: Activity
[8] = test system: RPMI-8226; assay: Cytotoxicity against human RPMI8226 cells assessed as cell growth at 100 uM after 48 hrs by sulforhodamine B assay relative to control; format: functional; details: RPMI-8226, 48 h, read-out: Activity
[9] = test system: T47D; assay: Cytotoxicity against human T47D cells assessed as cell growth at 1 uM after 48 hrs by sulforhodamine B assay relative to control; format: functional; details: read-out: Activity
[10] = test system: OVCAR-3; assay: Cytotoxicity against human OVCAR3 cells assessed as cell growth at 0.1 uM after 48 hrs by sulforhodamine B assay relative to control; format: functional; details: OVCAR-3, 48 h, read-out: Activity
[11] = test system: NCI-H226; assay: Cytotoxicity against human NCI-H226 cells assessed as cell growth at 0.1 uM after 48 hrs by sulforhodamine B assay relative to control; format: functional; details: NCI-H226, 48 h, read-out: Activity
[12] = test system: UACC-257; assay: Cytotoxicity against human UACC257 cells assessed as cell growth at 10 uM after 48 hrs by sulforhodamine B assay relative to control; format: functional; details: UACC-257, 48 h, read-out: Activity
[13] = test system: HT-29; assay: Cytotoxicity against human HT-29 cells assessed as cell growth at 0.01 uM after 48 hrs by sulforhodamine B assay relative to control; format: functional; details: HT-29, 48 h, read-out: Activity
[14] = test system: OVCAR-5; assay: Cytotoxicity against human OVCAR5 cells assessed as cell growth at 1 uM after 48 hrs by sulforhodamine B assay relative to control; format: functional; details: OVCAR-5, 48 h, read-out: Activity
[15] = test system: SF-539; assay: Cytotoxicity against human SF539 cells assessed as cell growth at 100 uM after 48 hrs by sulforhodamine B assay relative to control; format: functional; details: SF-539, 48 h, read-out: Activity
[16] = test system: SN12C; assay: Cytotoxicity against human SN12C cells assessed as cell growth at 100 uM after 48 hrs by sulforhodamine B assay relative to control; format: functional; details: read-out: Activity
[17] = test system: BT-549; assay: Cytotoxicity against human BT549 cells assessed as cell growth at 100 uM after 48 hrs by sulforhodamine B assay relative to control; format: functional; details: BT-549, 48 h, read-out: Activity
[18] = test system: SR; assay: Cytotoxicity against human SR cells assessed as cell growth at 10 uM after 48 hrs by sulforhodamine B assay relative to control; format: functional; details: read-out: Activity
[19] = test system: SK-MEL-5; assay: Cytotoxicity against human SK-MEL-5 cells assessed as cell growth at 10 uM after 48 hrs by sulforhodamine B assay relative to control; format: functional; details: SK-MEL-5, 48 h, read-out: Activity
[20] = test system: CCRF-CEM; assay: Cytotoxicity against human CCRF-CEM cells assessed as cell growth at 10 uM after 48 hrs by sulforhodamine B assay relative to control; format: functional; details: read-out: Activity
[21] = test system: NCI-H522; assay: Cytotoxicity against human NCI-H522 cells assessed as cell growth at 100 uM after 48 hrs by sulforhodamine B assay relative to control; format: functional; details: NCI-H522, 48 h, read-out: Activity
[22] = test system: MDA-MB-231; assay: Cytotoxicity against human MDA-MB-231 cells assessed as cell growth at 100 uM after 48 hrs by sulforhodamine B assay relative to control; format: functional; details: MDA-MB-231, 48 h, read-out: Activity
[23] = test system: DU-145; assay: Cytotoxicity against human DU145 cells assessed as cell growth at 0.1 uM after 48 hrs by sulforhodamine B assay relative to control; format: functional; details: DU-145, 48 h, read-out: Activity
[24] = test system: UACC-257; assay: Cytotoxicity against human UACC257 cells assessed as cell growth at 0.01 uM after 48 hrs by sulforhodamine B assay relative to control; format: functional; details: UACC-257, 48 h, read-out: Activity
[25] = test system: NCI-H23; assay: Cytotoxicity against human NCI-H23 cells assessed as growth inhibition after 48 hrs by sulforhodamine B assay; format: functional; details: NCI-H23, 48 h; for CC50: read-out: LC50 (the source's name)
[26] = test system: A498; assay: Cytotoxicity against human A498 cells assessed as cell growth at 1 uM after 48 hrs by sulforhodamine B assay relative to control; format: functional; details: A498, 48 h, read-out: Activity
[27] = test system: Hs-578T; assay: Cytotoxicity against human Hs 578T cells assessed as cell growth at 10 uM after 48 hrs by sulforhodamine B assay relative to control; format: functional; details: read-out: Activity
[28] = test system: U-251; assay: Cytotoxicity against human U251 cells assessed as cell growth at 0.01 uM after 48 hrs by sulforhodamine B assay relative to control; format: functional; details: U-251, 48 h, read-out: Activity
[29] = test system: HOP-62; assay: Cytotoxicity against human HOP62 cells assessed as cell growth at 0.1 uM after 48 hrs by sulforhodamine B assay relative to control; format: functional; details: HOP-62, 48 h, read-out: Activity
[30] = test system: SK-MEL-28; assay: Cytotoxicity against human SK-MEL-28 cells assessed as cell growth at 1 uM after 48 hrs by sulforhodamine B assay relative to control; format: functional; details: SK-MEL-28, 48 h, read-out: Activity
[31] = test system: MDA-MB-468; assay: Cytotoxicity against human MDA-MB-468 cells assessed as cell growth at 100 uM after 48 hrs by sulforhodamine B assay relative to control; format: functional; details: MDA-MB-468, 48 h, read-out: Activity
[32] = test system: BT-549; assay: Cytotoxicity against human BT549 cells assessed as cell growth at 0.01 uM after 48 hrs by sulforhodamine B assay relative to control; format: functional; details: BT-549, 48 h, read-out: Activity
[33] = test system: HCC 2998; assay: Cytotoxicity against human HCC2998 cells assessed as cell growth at 0.1 uM after 48 hrs by sulforhodamine B assay relative to control; format: functional; details: HCC 2998, 48 h, read-out: Activity
[34] = test system: TK-10; assay: Cytotoxicity against human TK10 cells assessed as growth inhibition after 48 hrs by sulforhodamine B assay; format: functional; details: TK-10, 48 h
[35] = test system: A498; assay: Cytotoxicity against human A498 cells assessed as cell growth at 0.01 uM after 48 hrs by sulforhodamine B assay relative to control; format: functional; details: A498, 48 h, read-out: Activity

COc1ccc(C(=O)/C=C/c2cc(-c3ccc4c(c3)OCO4)n[nH]2)cc1OC
growth at 10 µM [1]: -4% | growth at 10 µM [2]: -56% | LC50 [3]: 40.2 µM | TGI [3]: 5.82 µM | growth at 1 µM [4]: 96% | pIC50 [5]: 5.60 | growth at 100 µM [6]: -95% | growth at 1 µM [7]: 51% | growth at 100 µM [8]: -45% | growth at 1 µM [9]: 79% | growth at 0.1 µM [10]: 104% | growth at 0.1 µM [11]: 93% | growth at 10 µM [12]: 42% | growth at 0.01 µM [13]: 93% | growth at 1 µM [14]: 86% | growth at 100 µM [15]: -83% | growth at 100 µM [16]: -73% | growth at 100 µM [17]: -90% | growth at 10 µM [18]: -13% | growth at 10 µM [19]: 41% | growth at 10 µM [20]: -2% | growth at 100 µM [21]: -89% | growth at 100 µM [22]: -86% | growth at 0.1 µM [23]: 100% | growth at 0.01 µM [24]: 91% | TGI [25]: 19.6 µM | CC50 [25]: 66 µM | growth at 1 µM [26]: 72% | growth at 10 µM [27]: -9% | growth at 0.01 µM [28]: 90% | growth at 0.1 µM [29]: 99% | growth at 1 µM [30]: 96% | growth at 100 µM [31]: -85% | growth at 0.01 µM [32]: 102% | growth at 0.1 µM [33]: 97% | GI50 [34]: 2.88 µM | LC50 [34]: 70.4 µM | TGI [34]: 8.97 µM | growth at 0.01 µM [35]: 78%

COc1ccc(-c2cc(/C=C/C(=O)c3ccc(N)cc3)[nH]n2)cc1
growth at 10 µM [1]: -21% | growth at 10 µM [2]: -40% | GI50 [3]: 2.44 µM | LC50 [3]: > 100 µM | TGI [3]: 15.4 µM | growth at 1 µM [4]: 80% | pIC50 [5]: 6.10 | growth at 100 µM [6]: -80% | growth at 1 µM [7]: 36% | growth at 100 µM [8]: -67% | growth at 1 µM [9]: 60% | growth at 0.1 µM [10]: 96% | growth at 0.1 µM [11]: 84% | growth at 10 µM [12]: -54% | growth at 0.01 µM [13]: 97% | growth at 1 µM [14]: 92% | growth at 100 µM [15]: -94% | growth at 100 µM [16]: -78% | growth at 100 µM [17]: -61% | growth at 10 µM [18]: -12% | growth at 10 µM [19]: -3% | growth at 10 µM [20]: -27% | growth at 100 µM [21]: -75% | growth at 100 µM [22]: -65% | growth at 0.1 µM [23]: 100% | growth at 0.01 µM [24]: 96% | GI50 [25]: 3.22 µM | TGI [25]: 13.1 µM | CC50 [25]: 68.4 µM | growth at 1 µM [26]: 90% | growth at 10 µM [27]: 22% | growth at 0.01 µM [28]: 97% | growth at 0.1 µM [29]: 100% | growth at 1 µM [30]: 91% | growth at 100 µM [31]: -51% | growth at 0.01 µM [32]: 92% | growth at 0.1 µM [33]: 98% | GI50 [34]: 2.81 µM | LC50 [34]: 39.8 µM | TGI [34]: 13 µM | growth at 0.01 µM [35]: 88%

COc1ccc(-c2cc(/C=C/C(=O)c3ccc(OC)c(OC)c3)[nH]n2)cc1
growth at 10 µM [1]: -60% | growth at 10 µM [2]: -43% | GI50 [3]: 2.16 µM | LC50 [3]: 57.6 µM | TGI [3]: 10.4 µM | growth at 1 µM [4]: 95% | pIC50 [5]: 6.30 | growth at 100 µM [6]: -96% | growth at 1 µM [7]: 8% | growth at 100 µM [8]: -62% | growth at 1 µM [9]: 70% | growth at 0.1 µM [10]: 104% | growth at 0.1 µM [11]: 90% | growth at 10 µM [12]: -67% | growth at 0.01 µM [13]: 101% | growth at 1 µM [14]: 77% | growth at 100 µM [15]: -99% | growth at 100 µM [16]: -86% | growth at 100 µM [17]: -99% | growth at 10 µM [18]: -29% | growth at 10 µM [19]: -66% | growth at 10 µM [20]: -39% | growth at 100 µM [21]: -81% | growth at 100 µM [22]: -86% | growth at 0.1 µM [23]: 109% | growth at 0.01 µM [24]: 92% | GI50 [25]: 2.47 µM | TGI [25]: 6.33 µM | CC50 [25]: 34.1 µM | growth at 1 µM [26]: 69% | growth at 10 µM [27]: 23% | growth at 0.01 µM [28]: 95% | growth at 0.1 µM [29]: 97% | growth at 1 µM [30]: 90% | growth at 100 µM [31]: -76% | growth at 0.01 µM [32]: 100% | growth at 0.1 µM [33]: 105% | GI50 [34]: 2.11 µM | LC50 [34]: 8.78 µM | TGI [34]: 4.31 µM | growth at 0.01 µM [35]: 91%
